By inhibition is commonly meant the share of the control response that was lost under treatment.

Results on 16 compounds are retold here after patent US4661505A, “Leukotriene antagonists” (Eli Lilly and Company, priority 1982, dated 1987).

The structures appear in SMILES notation. Counter-ions that a name gives are not always drawn.

In this experiment the target is T1, LTD4 evoked ileal contractions (Cavia porcellus, UniProt Q2NNR5).
T1 construct: A section of terminal ileum was removed, the lumen cleaned, and the tissue divided into 2.5 cm. segments; from tissue; host or cells: terminal ileum of male Hartley guinea pigs
T1 sequence (Q2NNR5 1-340): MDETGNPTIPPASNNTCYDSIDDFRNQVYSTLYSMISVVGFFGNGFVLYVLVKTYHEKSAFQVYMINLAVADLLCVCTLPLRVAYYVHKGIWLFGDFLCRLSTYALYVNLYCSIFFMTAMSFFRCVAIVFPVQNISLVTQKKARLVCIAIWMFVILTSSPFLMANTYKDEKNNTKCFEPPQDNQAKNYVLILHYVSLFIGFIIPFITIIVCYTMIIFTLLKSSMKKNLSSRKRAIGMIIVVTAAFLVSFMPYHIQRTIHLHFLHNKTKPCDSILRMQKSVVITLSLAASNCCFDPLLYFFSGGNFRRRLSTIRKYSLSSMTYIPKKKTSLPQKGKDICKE
Description: Antagonism of LTD4-evoked contraction of isolated guinea pig ileum (single concentration). It is filed as cell-based. The conditions noted are these: pure LTD4, 5 minute exposure, read-out: Percent Inhibition of LTD4 evoked ileal contractions; for inhibition at 1 µM: 1 × 10^-6 M; for inhibition at 3 µM: 3 × 10^-6 M; for inhibition at 10 µM: 1 × 10^-5 M. The method, then: Male, Hartley guinea pigs weighing 200-450 grams were killed by decapitation. A section of terminal ileum was removed, the lumen cleaned, and the tissue divided into 2.5 cm. segments. The ilea were mounted in 10 ml. tissue baths containing Krebs-bicarbonate solution of the following composition in mmoles/liter: KCl, 4.6; CaCl2.2H2 O, 1.2; KH2 PO4, 1.2; MgSO4.7H2 O, 1.2; NaCl, 118.2; NaHCO3, 24.8 and dextrose, 10.0. The bath fluid was maintained at 37° C. and aerated with 95 percent oxygen and 5 percent CO2. In addition, the buffer contained 1×10^-6 M atropine to reduce ileal spontaneous activity. In studies with crude SRS-A, 1×10^-6M pyrilamine was used to mitigate the actions of histamine present along with the biologically active leukotrienes. Isometric measurements were made with a Grass FTO3C force-displacement transducer and recorded on a Grass polygraph as change in grams of force. A passive force of 0.5 g. was applied to the tissues. After an appropriate equilibration period, single submaximal control responses to either SRS-A or pure LTD4 were obtained. Following a 5 minute exposure of the ileum to an experimental drug, the control concentration of SRS-A or LTD4 was added to the tissue bath. The response of the ileum to SRS-A or LTD4 in the presence of the drug was compared to the response in the absence of the drug.
*Compounds marked with an asterisk were tested using crude SRSA as the
ileumcontracting agent; all other compounds were tested using pure

As to `CCCc1c(OCCCCc2nnn[nH]2)ccc(C(C)=O)c1O` [Example 8, 5-[4-(4-Acetyl-3-hydroxy-2-propylphenoxy)butyl]-tetrazole], the inhibition at 1 µM came out at 89% and the inhibition at 3 µM came to 100%. For `CCCc1c(OCCCCCCCCCCCCc2nnn[nH]2)ccc(C(C)=O)c1O` [Example 14, 5-[12-(4-Acetyl-3-hydroxy-2-propylphenoxy)dodecyl]-tetrazole], in that order: 22% and 47%.

As for `CCCc1c(OC(CCCCC(=O)O)c2ccc(Cc3ccccc3)cc2)ccc(C(C)=O)c1O` (centres unmarked) [Example 15, 6-(4-Acetyl-3-hydroxy-2-propylphenoxy)-6-(4-benzylphenyl)hexanoic acid], the inhibition at 10 µM is 37%. On to `CC(=O)c1ccc(OC(CCCCC(=O)O)c2ccc(Cc3ccccc3)cc2)cc1O` (centres unmarked) [Example 16, 6-(4-Acetyl-3-hydroxyphenoxy)-6-(4-benzylphenyl)hexanoic acid], for which the inhibition at 10 µM was determined as 86% and the inhibition at 3 µM worked out at 70%. Take `CC(=O)c1ccc(OC(CCCCC(=O)O)c2ccc(-c3ccccc3)cc2)cc1O` (centres unmarked) [Example 18, 6-(4-Acetyl-3-hydroxyphenoxy)-6-(4-biphenyl)hexanoic acid]: the inhibition at 3 µM turned out to be 34%. With `CCCc1c(OC(CCCCC(=O)O)c2ccccc2)ccc(C(C)=O)c1O` (centres unmarked) [Example 19, 6-(4-Acetyl-3-hydroxy-2-propylphenoxy)-6-phenylhexanoic acid], the inhibition at 10 µM is 64% and the inhibition at 3 µM stood at 35%. For `CCCc1c(OCCCc2nnn[nH]2)ccc(C(C)=O)c1O` [Example 23, 5-[3-(4-Acetyl-3-hydroxy-2-propylphenoxy)propyl]-tetrazole], the inhibition at 1 µM turned out to be 15%. Consider `C=CCc1c(OCCCCCC(=O)O)ccc(C(C)=O)c1O` [Example 26, 6-(4-Acetyl-3-hydroxy-2-allylphenoxy)-hexanoic acid], for which the inhibition at 3 µM is 29%. For `CCCc1c(OCCCCCCC(=O)O)ccc(C(C)=O)c1O` [Example 29, 7-(4-Acetyl-3-hydroxy-2-propylphenoxy)heptanoic acid], the inhibition at 10 µM came out at 84% and the inhibition at 1 µM was found to be 43%. The corresponding values for `CCCc1c(OCCCCCCCC(=O)O)ccc(C(C)=O)c1O` [Example 30, 8-(4-Acetyl-3-hydroxy-2-propylphenoxy)octanoic acid] are 94% and 62%. As for `CCCc1c(OCCCCCCCCCC(=O)O)ccc(C(C)=O)c1O` [Example 32, 10-(4-Acetyl-3-hydroxy-2-propylphenoxy)decanoic acid], the inhibition at 10 µM was determined as 92%, the inhibition at 1 µM is 46% and the inhibition at 3 µM was 85%. On to `CCCc1c(OCCCCCCCCCCC(=O)O)ccc(C(C)=O)c1O` [Example 33, 11-(4-Acetyl-3-hydroxy-2-propylphenoxy)undecanoic acid], for which the inhibition at 10 µM turned out to be 92% and the inhibition at 3 µM stood at 79%.

As to `CCCc1c(OCCCCCCN2CCOCC2)ccc(C(C)=O)c1O` [Example 35, N-[6-(4-Acetyl-3-hydroxy-2-propylphenoxy)hexyl]morpholine hydrochloride], the inhibition at 10 µM was 80% and the inhibition at 3 µM was 47%.

Consider `CCCc1c(OCCCCCCN)ccc(C(C)=O)c1O` [Example 36, 6-(4-Acetyl-3-hydroxy-2-propylphenoxy)hexylamine hydrochloride], for which the inhibition at 1 µM was found to be 26% and the inhibition at 3 µM was 42%.

Turning to `CCCc1c(OCCCCCCN2CCN(C)CC2)ccc(C(C)=O)c1O` [Example 37, N-Methyl-N'-[6-(4-acetyl-3-hydroxy-2-propylphenoxy)hexyl]piperazine dihydrochloride], the inhibition at 10 µM came out at 78% and the inhibition at 3 µM stood at 32%. The corresponding values for `CCCc1c(OCCCCCCN(C)C)ccc(C(C)=O)c1O` [Example 38, N,N-Dimethyl-[6-(4-acetyl-3-hydroxy-2-propylphenoxy)hexyl]amine hydrochloride] are 60% and 30%.
